These results are taken from patent US9249129B2, “Morpholino substituted urea derivatives as mTOR inhibitors” (CELLZOME LIMITED, priority 2010, dated 2016).

In one assay the target is T1, mTOR (Homo sapiens, UniProt P42345).
T1 construct: endogenous in cells; host or cells: Jurkat cells (ATCC TIB-152, clone E6-1), lysate
Nature of the assay: mTOR kinobeads assay (dot blot detection). The class given is binding. Here is the method:
(§1) The compounds of the present invention as described were tested in the mTOR kinobeads assay as described below. Briefly, test compounds (at various concentrations) and the affinity matrix (1:1 mixture of beads with immobilized phenylthiazole ligand 1 and beads with immobilized phenylmorpholin-chromen ligand; WO 2009/098021) were added to cell lysate aliquots and allowed to bind to the proteins in the lysate sample. After the incubation time the beads with captured proteins were separated from the lysate. Bound proteins were then eluted and the presence of mTOR, PI3K delta (PI3 Kd) and DNA-dependent protein kinase (DNA-PK) was detected and quantified using a specific antibody in a dot blot procedure and the Odyssey infrared detection system. Dose response curves for individual kinases were generated and IC50 values calculated. Kinobeads assays for PI3 kinases (WO-A 2008/015013) and for kinase selectivity profiling (WO 2009/098021) have been previously described.
(§2) The affinity matrix (beads with immobilized phenylmorpholin-chromen ligand) was washed two times with 15 ml of 1×DP buffer containing 0.2% NP40 (IGEPAL® CA-630, Sigma, #13021) and then resupended in 5.5 ml of 1×DP buffer containing 0.2% NP40 (10% beads slurry).
(§3) 5×DP buffer: 250 mM Tris-HCl pH 7.4, 25% Glycerol, 7.5 mM MgCl2, 750 mM NaCl, 5 mM Na3VO4, filter the 5×-lysis buffer through 0.22 μm filter and store in aliquots at −80° C. The 5×DP buffer is diluted to 1×DP buffer containing 1 mM DTT and 25 mM NaF.
(§4) Stock solutions of test compounds were prepared in DMSO. In a 96 well plate 30 μl solution of diluted test compounds at 5 mM in DMSO were prepared. Starting with this solution a 1:3 dilution series (9 steps) was prepared. For control experiments (no test compound) a buffer containing 2% DMSO was used. Compound CZC00018052 served as a positive control (PI-103; Calbiochem catalogue number 528100).
(§5) Jurkat cells (ATCC catalogue number TIB-152 Jurkat, clone E6-1) were grown in 1 litre Spinner flasks (Integra Biosciences, #182101) in suspension in RPMI 1640 medium (Invitrogen, #21875-034) supplemented with 10% Fetal Bovine Serum (Invitrogen) at a density between 0.15×10^6 and 1.2×10^6 cells/ml. Cells were harvested by centrifugation, washed once with 1×PBS buffer (Invitrogen, #14190-094) and cell pellets were frozen in liquid nitrogen and subsequently stored at −80° C.
(§6) Jurkat cells were homogenized in a Potter S homogenizer in lysis buffer: 50 mM Tris-HCl, 0.8% NP40, 5% glycerol, 150 mM NaCl, 1.5 mM MgCl2, 25 mM NaF, 1 mM sodium vanadate, 1 mM DTT, pH 7.5. One complete EDTA-free tablet (protease inhibitor cocktail, Roche Diagnostics, 1873580) per 25 ml buffer was added. The material was dounced 10 times using a mechanized POTTER S, transferred to 50 ml falcon tubes, incubated for 30 minutes on ice and spun down for 10 min at 20,000 g at 4° C. (10,000 rpm in Sorvall SLA600, precooled). The supernatant was transferred to an ultracentrifuge (UZ)-polycarbonate tube (Beckmann, 355654) and spun for 1 hour at 100.000 g at 4° C. (33.500 rpm in Ti50.2, precooled). The supernatant was transferred again to a fresh 50 ml falcon tube, the protein concentration was determined by a Bradford assay (BioRad) and samples containing 50 mg of protein per aliquot were prepared. The samples were immediately used for experiments or frozen in liquid nitrogen and stored frozen at −80° C.
(§7) Jurkat cell lysate (approximately 50 mg protein per plate) was thawed in a water bath at room temperature and then kept on ice. To the thawed cell lysate 1×DP 0.8% NP40 buffer containing protease inhibitors (1 tablet for 25 ml buffer; EDTA-free protease inhibitor cocktail; Roche Diagnostics 1873580) was added in order to reach a final protein concentration of 5 mg/ml total protein. The diluted cell lysate was stored on ice. […]

Another assay addresses T2, PI3K delta (PI3Kd) (Homo sapiens, UniProt O00329).
T2 construct: endogenous in cells; host or cells: Jurkat cells (ATCC TIB-152, clone E6-1), lysate
Nature of the assay: kinobeads assay, PI3K delta (dot blot detection). It is filed as binding. On the procedure:
as §1, §2, §3, §4, §5, §6, §7

For assay [1], the target named is T3, DNA-dependent protein kinase (DNA-PK) (Homo sapiens, UniProt P78527).
T3 construct: endogenous in cells; host or cells: Jurkat cells (ATCC TIB-152, clone E6-1), lysate
Nature of the assay: kinobeads assay, DNA-PK (dot blot detection). It is filed as binding. Here is the method:
as §1, §2, §3, §4, §5, §6, §7

For the next assay, the target named is T4, PI3Kα (Homo sapiens, UniProt P42336).
T4 construct: endogenous in cells; host or cells: Jurkat cells (ATCC TIB-152) lysate, the only lysate described
The assay can be described thus: kinobeads assay, PI3K alpha (dot blot detection). The class given is binding. Particulars: Table 4, read-out: Inhibition values (IC50) PI3Ka.

In a further assay the target is T5, PI3Kβ (Homo sapiens, UniProt P42338).
T5 construct: endogenous in cells; host or cells: Jurkat cells (ATCC TIB-152) lysate, the only lysate described
Nature of the assay: kinobeads assay, PI3K beta (dot blot detection). The class given is binding. As to conditions: Table 4, read-out: Inhibition values (IC50) PI3Kb.

In the next assay the target is T6, PI3Kγ (Homo sapiens, UniProt P48736).
T6 construct: endogenous in cells; host or cells: Jurkat cells (ATCC TIB-152) lysate, the only lysate described
Nature of the assay: kinobeads assay, PI3K gamma (dot blot detection). It is filed as binding. As to conditions: Table 4, read-out: Inhibition values (IC50) PI3Kg.

Assay [2] deals with S6RP serine-240/244 phosphorylation in HEK293T/17 cells. The assay can be described thus: In vitro phospho-S6 cellular assay (pS6RP S240/244). It is filed as cell-based. As to conditions: Homo sapiens, Table 6, 2 hours, S6RP Ser240/244, read-out: pS6 (phospho-S6 cell assay data, activity level). An excerpt: In Vitro Phospho-S6 and Phospho-Akt Cellular Assay
Activation of mTOR signaling results in phosphorylation of several downstream targets. In cells, mTOR exists in two different protein complexes. The mTOR Complex-1 (mTORC1) phosphorylates and activates S6 Kinase 1 (S6K1) and S6 Kinase 2 (S6K2) (also known as p70S6K) which then phosphorylate S6 Ribosomal Protein (S6RP) (also known as RPS6). S6RP is phosphorylated on serine 235, serine 236, serine 240 and serine 244 by both pS6K1 and pS6K2. The mTOR Complex-2 (mTORC2) phosphorylates AKT on serine 473 which activates the AKT signaling pathway.
The assay measures a test compound's inhibition of S6RP serine-240/244 phosphorylation and inhibition of Akt serine-473 phosphorylation in human embryonic kidney derived HEK293T/17 cells (ATCC CRL-11268).
The HEK293T/17 cell line is maintained in DMEM media (Invitrogen catalogue number 41965-039) supplemented with 10% FCS at 37° C. in a 5% CO2 humidified incubator.
Cells are seeded in 96-well plates at 40,000 cells/well (pS6RP S240/244 assay) or 80,000 cells/well (pAkt 5473 assay) in 90 μl growth media (DMEM, 2% FCS). Plates are incubated for 1 hour in a humidified incubator to allow the cells to adhere. Cells are treated with 8 concentrations of test compounds or DMSO alone for controls (final DMSO concentration 0.1%) and incubated at 37° C. for 2 hours. Then 20 μl of 5× concentrated lysis buffer (750 mM NaCl, 100 mM Tris pH7.4, 5 mM EDTA, 5 mM EGTA, 5% Triton X-100) is added, plates are sealed and incubated for 15 minutes at 4° C. with gentle shaking. After cell lysis, 25 μl cell lysate is transferred to a MesoScale plate coated with an antibody to pS6RP Ser240/244 (MesoScale Discovery K150DGD-3) or an antibody to pAkt Ser 473 (MesoScale Discovery K151DGD-3). Plates have been blocked before by incubation with 150 μl MesoScale Discovery Blocking Solution-A for 1 hour at room temperature followed by washing with 150 μl 1× Tris wash buffer per well. After the transfer of the cell lysate to the MSD plate, the pS6RP (or pAkt) protein is captured on the coated antibody by incubation at room temperature for 1 hour with gentle shaking. After the capture step the plate is washed three times with 150 μl of 1× Tris wash buffer per well. Then 25 μl detection antibody conjugated with a Sulfo-Tag is added and incubated for 1 hour at room temperature with gentle shaking. Subsequently the antibody solution is removed and the plate is washed 3 times with 150 μl 1× Tris wash buffer per well and 150 μl Read buffer is added. The plates are analysed on a MSD 2400 Plate Reader (MesoScale Discovery). Data analysis is performed using nonlinear regression for a sigmoidal dose-response with a variable slope.

Setting [3] is: Table 2, Jurkat cell lysate, read-out: Inhibition values (IC50) mTor.
Setting [4] is: Table 4, read-out: Inhibition values (IC50) mTOR.
The mark [5] stands for this setting: Table 2, Jurkat cell lysate, read-out: Inhibition values (IC50) PI3Kd.
[6] abbreviates: Table 4, read-out: Inhibition values (IC50) PI3Kd.
Setting [7] is: Table 2, Jurkat cell lysate, read-out: Inhibition values (IC50) DNAPK.
Where [8] appears, read: Table 4, read-out: Inhibition values (IC50) DNAPK.

pIC50: −log10 of the molar value. Where two headings read alike, the source gives them in different places. Where only a bound is given, the exact number is not on record here.

T3 sequence (P78527 whole entry): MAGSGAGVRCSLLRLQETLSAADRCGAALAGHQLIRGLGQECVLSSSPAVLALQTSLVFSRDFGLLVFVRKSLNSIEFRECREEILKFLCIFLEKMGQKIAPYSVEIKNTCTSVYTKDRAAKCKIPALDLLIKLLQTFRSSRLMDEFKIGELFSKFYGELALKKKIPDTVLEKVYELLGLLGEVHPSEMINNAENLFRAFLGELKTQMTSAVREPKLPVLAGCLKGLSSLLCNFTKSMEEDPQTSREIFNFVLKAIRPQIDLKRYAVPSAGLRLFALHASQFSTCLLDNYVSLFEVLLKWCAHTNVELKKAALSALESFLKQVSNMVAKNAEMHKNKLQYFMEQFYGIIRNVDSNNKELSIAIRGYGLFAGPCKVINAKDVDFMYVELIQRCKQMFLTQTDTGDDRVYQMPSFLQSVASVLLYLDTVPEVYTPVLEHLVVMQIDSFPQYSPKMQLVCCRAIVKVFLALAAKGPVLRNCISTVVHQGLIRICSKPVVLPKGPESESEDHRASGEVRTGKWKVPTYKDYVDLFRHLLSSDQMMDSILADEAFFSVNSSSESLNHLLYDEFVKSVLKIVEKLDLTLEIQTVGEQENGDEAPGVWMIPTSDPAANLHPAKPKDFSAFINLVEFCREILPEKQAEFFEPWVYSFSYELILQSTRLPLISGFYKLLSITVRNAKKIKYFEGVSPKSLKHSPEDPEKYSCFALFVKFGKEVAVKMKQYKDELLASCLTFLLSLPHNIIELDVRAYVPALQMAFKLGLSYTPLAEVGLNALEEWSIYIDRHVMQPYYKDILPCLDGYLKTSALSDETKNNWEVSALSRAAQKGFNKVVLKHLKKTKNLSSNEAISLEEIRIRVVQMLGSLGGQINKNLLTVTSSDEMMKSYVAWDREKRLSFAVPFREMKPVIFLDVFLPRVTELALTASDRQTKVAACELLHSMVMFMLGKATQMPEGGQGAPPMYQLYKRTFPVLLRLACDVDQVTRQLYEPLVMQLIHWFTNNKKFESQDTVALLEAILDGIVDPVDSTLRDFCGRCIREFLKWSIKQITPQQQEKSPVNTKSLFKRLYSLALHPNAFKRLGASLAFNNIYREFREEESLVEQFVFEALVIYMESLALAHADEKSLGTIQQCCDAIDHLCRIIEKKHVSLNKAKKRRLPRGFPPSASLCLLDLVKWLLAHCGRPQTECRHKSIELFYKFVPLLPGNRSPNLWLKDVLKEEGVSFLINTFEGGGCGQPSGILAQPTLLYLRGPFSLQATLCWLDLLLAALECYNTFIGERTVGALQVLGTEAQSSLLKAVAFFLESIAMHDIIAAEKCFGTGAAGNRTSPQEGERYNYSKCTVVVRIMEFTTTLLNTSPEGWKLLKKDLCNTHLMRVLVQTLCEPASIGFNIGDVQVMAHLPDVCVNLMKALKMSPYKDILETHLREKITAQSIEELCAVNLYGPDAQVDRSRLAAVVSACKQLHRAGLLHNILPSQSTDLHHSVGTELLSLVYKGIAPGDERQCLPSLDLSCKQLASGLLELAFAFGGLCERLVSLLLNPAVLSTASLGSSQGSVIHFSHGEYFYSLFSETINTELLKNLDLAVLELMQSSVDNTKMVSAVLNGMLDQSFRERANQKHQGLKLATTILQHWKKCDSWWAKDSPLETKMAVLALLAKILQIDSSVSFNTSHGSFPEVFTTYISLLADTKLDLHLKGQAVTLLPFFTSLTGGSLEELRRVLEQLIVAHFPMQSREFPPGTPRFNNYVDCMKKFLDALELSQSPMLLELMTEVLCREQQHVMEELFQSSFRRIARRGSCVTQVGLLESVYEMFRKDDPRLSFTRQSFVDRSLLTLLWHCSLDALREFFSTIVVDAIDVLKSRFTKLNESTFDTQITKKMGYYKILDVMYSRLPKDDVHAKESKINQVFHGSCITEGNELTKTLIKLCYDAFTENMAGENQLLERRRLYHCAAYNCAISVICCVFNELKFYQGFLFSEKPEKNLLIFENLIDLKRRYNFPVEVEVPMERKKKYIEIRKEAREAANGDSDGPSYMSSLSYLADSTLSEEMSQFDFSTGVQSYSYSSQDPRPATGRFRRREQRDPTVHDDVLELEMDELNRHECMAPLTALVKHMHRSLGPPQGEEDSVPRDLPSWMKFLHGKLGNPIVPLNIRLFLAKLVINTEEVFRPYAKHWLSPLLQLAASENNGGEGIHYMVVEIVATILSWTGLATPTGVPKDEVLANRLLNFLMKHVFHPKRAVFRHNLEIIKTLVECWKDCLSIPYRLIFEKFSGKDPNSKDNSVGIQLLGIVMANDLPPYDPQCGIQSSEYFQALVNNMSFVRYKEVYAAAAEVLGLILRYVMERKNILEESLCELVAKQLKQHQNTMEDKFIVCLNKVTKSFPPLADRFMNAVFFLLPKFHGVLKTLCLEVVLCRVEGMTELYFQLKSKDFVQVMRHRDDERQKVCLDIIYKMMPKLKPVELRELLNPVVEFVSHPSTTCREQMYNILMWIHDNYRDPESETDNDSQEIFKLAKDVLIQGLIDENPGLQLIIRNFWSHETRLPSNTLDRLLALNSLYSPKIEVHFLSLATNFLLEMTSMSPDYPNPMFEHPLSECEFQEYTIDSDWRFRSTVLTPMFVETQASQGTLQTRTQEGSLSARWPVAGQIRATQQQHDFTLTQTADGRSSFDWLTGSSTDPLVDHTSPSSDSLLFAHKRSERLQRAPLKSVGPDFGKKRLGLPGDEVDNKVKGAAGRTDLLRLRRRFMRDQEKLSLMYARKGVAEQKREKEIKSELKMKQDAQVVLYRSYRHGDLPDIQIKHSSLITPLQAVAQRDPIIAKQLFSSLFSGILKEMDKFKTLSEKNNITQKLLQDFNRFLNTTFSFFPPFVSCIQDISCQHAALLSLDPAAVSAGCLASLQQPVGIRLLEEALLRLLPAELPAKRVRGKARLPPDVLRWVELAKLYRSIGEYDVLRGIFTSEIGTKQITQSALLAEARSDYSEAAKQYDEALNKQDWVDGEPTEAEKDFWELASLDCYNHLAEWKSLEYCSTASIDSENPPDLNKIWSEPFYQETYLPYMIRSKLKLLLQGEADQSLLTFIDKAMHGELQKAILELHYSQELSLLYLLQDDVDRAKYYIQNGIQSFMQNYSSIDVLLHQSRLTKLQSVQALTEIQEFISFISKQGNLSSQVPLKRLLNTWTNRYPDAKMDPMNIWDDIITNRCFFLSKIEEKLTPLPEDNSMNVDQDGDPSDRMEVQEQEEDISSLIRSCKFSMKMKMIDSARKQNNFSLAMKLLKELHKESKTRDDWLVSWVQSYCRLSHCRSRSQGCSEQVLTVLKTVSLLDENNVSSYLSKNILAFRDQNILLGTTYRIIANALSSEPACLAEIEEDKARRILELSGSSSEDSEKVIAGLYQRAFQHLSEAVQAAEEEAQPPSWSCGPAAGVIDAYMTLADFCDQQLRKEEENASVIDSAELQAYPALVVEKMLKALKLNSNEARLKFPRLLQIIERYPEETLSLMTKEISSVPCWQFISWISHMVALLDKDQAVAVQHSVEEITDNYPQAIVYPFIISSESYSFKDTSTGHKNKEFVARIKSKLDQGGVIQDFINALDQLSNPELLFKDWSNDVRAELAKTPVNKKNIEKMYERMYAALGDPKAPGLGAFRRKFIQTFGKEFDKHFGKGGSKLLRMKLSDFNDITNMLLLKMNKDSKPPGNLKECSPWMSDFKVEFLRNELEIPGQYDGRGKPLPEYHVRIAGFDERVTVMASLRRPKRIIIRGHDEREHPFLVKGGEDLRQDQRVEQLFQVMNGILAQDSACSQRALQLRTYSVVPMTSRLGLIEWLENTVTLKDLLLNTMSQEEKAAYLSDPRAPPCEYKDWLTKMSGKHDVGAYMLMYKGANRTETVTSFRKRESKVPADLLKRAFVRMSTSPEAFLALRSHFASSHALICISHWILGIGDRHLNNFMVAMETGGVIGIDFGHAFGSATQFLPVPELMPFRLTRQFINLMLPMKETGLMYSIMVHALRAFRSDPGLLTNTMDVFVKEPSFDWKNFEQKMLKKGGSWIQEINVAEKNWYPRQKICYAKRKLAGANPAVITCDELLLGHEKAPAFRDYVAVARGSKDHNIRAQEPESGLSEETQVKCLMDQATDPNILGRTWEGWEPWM

Regarding `C[C@H]1COCCN1c1cc(-c2ccncc2F)nc(-c2ccc(NC(=O)NC3CC3)cc2)n1` [Example 24, (S)-1-cyclopropyl-3-(4-(4-(3-fluoropyridin-4-yl)-6-(3-methylmorpholino)pyrimidin-2-yl)phenyl)urea], the pIC50 is 6.00 to 7.00 at mTOR (setting [3]); 6.00 to 7.00 on mTOR (setting [4]); ≤ 5.00 at PI3K delta (PI3Kd) (setting [5]); ≤ 5.00 at PI3K delta (PI3Kd) (setting [6]); ≤ 5.00 in assay [1] (setting [7]); ≤ 5.00 in assay [1] (setting [8]). For the same compound, the pIC50 on PI3Kα was ≤ 5.00; on PI3Kβ, ≤ 5.00; on PI3Kγ it was ≤ 5.00; in assay [2] it was 6.00 to 7.00.

`O=C(NCCF)Nc1ccc(-c2nccc(N3CC4CCC(C3)O4)n2)cc1` [Example 52, 1-(4-(4-(8-oxa-3-azabicyclo[3.2.1]octan-3-yl)pyrimidin-2-yl)phenyl)-3-(2-fluoroethyl)urea]: the pIC50 was 6.00 to 7.00 on mTOR (setting [3]); 6.00 to 7.00 on mTOR (setting [4]); ≤ 5.00 at PI3K delta (PI3Kd) (setting [5]); ≤ 5.00 at PI3K delta (PI3Kd) (setting [6]); 5.00 to 6.00 in assay [1] (setting [7]); 5.00 to 6.00 in assay [1] (setting [8]). Further, the pIC50 on PI3Kα is ≤ 5.00; on PI3Kβ it was ≤ 5.00; on PI3Kγ, ≤ 5.00; in assay [2] it was 6.00 to 7.00.

Turning to `C[C@H]1COCCN1c1nc(-c2ccc(NC(=O)NC3(CO)CCC3)cc2)cc(-c2cc(F)ccc2S(C)(=O)=O)n1` [Example 75, (S)-1-(4-(6-(5-fluoro-2-(methylsulfonyl)phenyl)-2-(3-methylmorpholino)pyrimidin-4-yl)phenyl)-3-(1-(hydroxymethyl)cyclobutyl)urea], the pIC50 was 6.00 to 7.00 on mTOR (setting [4]); ≤ 5.00 on PI3K delta (PI3Kd) (setting [6]); ≤ 5.00 in assay [1] (setting [8]); ≤ 5.00 at PI3Kα; ≤ 5.00 on PI3Kβ; ≤ 5.00 at PI3Kγ. For the same compound, the pIC50 in assay [2] is 6.00 to 7.00.

For the compound `O=C(NCCO)Nc1ccc(-c2nccc(N3CC4CCC(C3)O4)n2)cc1` [Example 50, 1-(4-(4-(8-oxa-3-azabicyclo[3.2.1]octan-3-yl)pyrimidin-2-yl)phenyl)-3-(2-hydroxyethyl)urea], the pIC50 on mTOR (setting [3]) was > 7.00; on mTOR (setting [4]), > 7.00; at PI3K delta (PI3Kd) (setting [5]), ≤ 5.00; on PI3K delta (PI3Kd) (setting [6]), ≤ 5.00; in assay [1] (setting [7]), 5.00 to 6.00; in assay [1] (setting [8]), 5.00 to 6.00. For the same compound, the pIC50 is ≤ 5.00 on PI3Kα, ≤ 5.00 on PI3Kβ, ≤ 5.00 at PI3Kγ and 6.00 to 7.00 in assay [2].

As for `CNC(=O)Nc1ccc(-c2nccc(N3CCOC[C@@H]3C)n2)cc1` [Example 34, (S)-1-methyl-3-(4-(4-(3-methylmorpholino)pyrimidin-2-yl)phenyl)urea], the pIC50 is 5.00 to 6.00 at mTOR (setting [3]); 5.00 to 6.00 on mTOR (setting [4]); ≤ 5.00 on PI3K delta (PI3Kd) (setting [5]); ≤ 5.00 on PI3K delta (PI3Kd) (setting [6]); ≤ 5.00 in assay [1] (setting [7]); ≤ 5.00 in assay [1] (setting [8]). For the same compound, in assay [2], the pIC50 was 6.00 to 7.00.

In the case of `CC(=O)NCCNC(=O)Nc1ccc(-c2cc(-c3cc(F)ccc3S(C)(=O)=O)nc(N3CCOC[C@@H]3C)n2)cc1` [Example 85, (S)—N-(2-(3-(4-(6-(5-fluoro-2-(methylsulfonyl)phenyl)-2-(3-methylmorpholino)pyrimidin-4-yl)phenyl)ureido)ethyl)acetamide], the pIC50 at mTOR (setting [4]) is 5.00 to 6.00; on PI3K delta (PI3Kd) (setting [6]), ≤ 5.00; in assay [1] (setting [8]), ≤ 5.00; at PI3Kα, ≤ 5.00; on PI3Kβ, ≤ 5.00; on PI3Kγ, ≤ 5.00.

For `C[C@H]1COCCN1c1cc(-c2cncc(S(C)(=O)=O)c2)nc(-c2ccc(NC(=O)NC3CC3)cc2)n1` [Example 22, (S)-1-cyclopropyl-3-(4-(4-(3-methylmorpholino)-6-(5-(methylsulfonyl)pyridin-3-yl)pyrimidin-2-yl)phenyl)urea], the pIC50 on mTOR (setting [3]) was 5.00 to 6.00; at mTOR (setting [4]), 5.00 to 6.00; on PI3K delta (PI3Kd) (setting [5]), ≤ 5.00; at PI3K delta (PI3Kd) (setting [6]) it was ≤ 5.00; in assay [1] (setting [7]), ≤ 5.00; in assay [1] (setting [8]), ≤ 5.00. Further, the pIC50 in assay [2] is 6.00 to 7.00.
